In patent US20060003951A1, “Anti-viral 7-deaza L-nucleosides” (Micrologix Biotech Inc., priority 2001, published 2006):

SMILES: Nc1ncnc2c1ccn2[C@@H]1C[C@@H](O)[C@H](CO)O1
- melting point: 214.8 to 215.5 °C
